Reference: patent publication US20040014215A1, “Synchronised arabidopsis cell suspensions and uses thereof” (priority 2000, published 2004)

How the values were obtained:
Type in all cases: cell-based, Arabidopsis thaliana
[1] = system: CDK-a; assay: Northern expression analysis after aphidicolin synchronisation of MM1 (maximum signal = 100%)
Protocol: (§1) was analysed following the expression level of known cell cycle regulated genes. Synchronisation was performed as described in Example 2A, with the exception that two 7-day old cultures of the weekly sub-cultured cell suspension (210 ml each) were combined. 40 ml of combined culture was transferred into 200 ml of fresh MSS-medium in each of 10 separate flasks. After incubation for 24 hrs under conditions as described in Example 1, in the presence of 4.16 μg/ml aphidicolin, cells from 5 pooled flasks were washed through a nylon net (mesh size 47 μm) and washed with 2 litre MSS medium and shaken vigorously to remove the aphidicolin. Cells were transferred into a 50 ml plastic tube, washed again with MSS medium and centrifuged at 2500 rpm for 1 min (1075 rcf). Cells were resuspended and combined with the cells from the other 5 flasks similarly washed in a total volume of 300 ml fresh MSS-medium. 30 ml of this cell suspension was then added to 200 ml fresh MSS-medium in each of 10 separate flasks.
1) 25 ml for Northern blot (transferred into 50 ml plastic tube, centrifuged at 2500 rpm for 1 min, the supernatant discarded, and the cell pellet shock-frozen in liquid nitrogen before storing in −80° C. freezer)
Samples were collected at the time point indicated (time of removal of aphidicolin equals time point 0 hrs) and were analysed for expression of the following genes by Northern blot:
CDK-a (also called Cdc2a/CDK2a: Accession no. ATCDC2AP)
For each probe the maximum hybridisation signal obtained was defined as 100%.

[2] = system: Arabidopsis cell suspension MM2d; assay: Aphidicolin block/release of MM2d: mitotic index and labelling index
Protocol: This experiment was carried out as described for Example 1, except that cell line MM2d was used, and the culture conditions throughout the experiment were as described for MM2d in Example 1.
Synchronisation was performed as described in Example 2A, with the exception that before adding aphidicolin, 20 ml of the weekly subcultured cell suspension was transferred into 100 ml fresh MSS-medium in each of 2 separate flasks and cultivated under conditions as described in Example 1 for MM2d. […] Samples were taken at the same time frame for flow cytometry to follow cell cycle transition.
Samples were analysed by flow cytometry to determine the percentage of cells being in G1-, S- and G2M phase. The mitotic index (MI) and labelling index (LI) were independently determined (as described in Example 2A). Results are shown below in table II and in FIG. 1.
Table II. Aphidicolin block/release of Arabidopsis cell suspension MM2d. Data are shown from analysis of samples obtained in the experiment described in Example 2B.

[3] = system: Arabidopsis cell suspension culture MM1; assay: Scaled-up aphidicolin (4.16 μg/ml, 24 hrs) synchronisation of MM1: LI and MI
Protocol: as §1
For every time point a 30 ml sample was split into:
2) 5 ml for LI and Ml determination as described in Example 2A.
A MI peak of 9.8% was observed, about 12 hrs after release from the aphidicolin block. Labelling index was also determined and reached a peak of 52%, 3 h after release.

[4] = 0 hrs after aphidicolin removal
[5] = 2 hrs after aphidicolin removal
[6] = 4 hrs after aphidicolin removal
[7] = 6 hrs after aphidicolin removal
[8] = 8 hrs after aphidicolin removal
[9] = 10 hrs after aphidicolin removal
[10] = 12 hrs after aphidicolin removal
[11] = 14 hrs after aphidicolin removal
[12] = 16 hrs after aphidicolin removal
[13] = 18 hrs after aphidicolin removal
[14] = 20 hrs after aphidicolin removal
[15] = 22 hrs after aphidicolin removal
[16] = 24 hrs after aphidicolin removal
[17] = 26 hrs after aphidicolin removal
[18] = 28 hrs after aphidicolin removal
[19] = 30 hrs after aphidicolin removal

`C[C@@]1(CO)[C@H](O)CC[C@@]2(C)[C@H]1CC[C@H]1C[C@@H]3C[C@@]12CC[C@]3(O)CO` [aphidicolin] was tested, and the CDK-a % [1, 4] was 17.71%, the “CDK-a Band intensity” value [1, 4] was 321 and the CDK-a % [1, 5] was 37.87%. The “CDK-a Band intensity” value [1, 5] was 687, the CDK-a % [1, 6] was 45.09% and the “CDK-a Band intensity” value [1, 6] was 818. The CDK-a % [1, 7] was 66.22%, the “CDK-a Band intensity” value [1, 7] was 1202 and the CDK-a % [1, 8] was 58.06%. For the same compound, the “CDK-a Band intensity” value [1, 8] was 1054, the CDK-a % [1, 9] was 77.44% and the “CDK-a Band intensity” value [1, 9] was 1406. The CDK-a % [1, 10] was 80.20%, the “CDK-a Band intensity” value [1, 10] was 1456 and the CDK-a % [1, 11] was 92.43%. The “CDK-a Band intensity” value [1, 11] was 1678, the CDK-a % [1, 12] was 79.03% and the “CDK-a Band intensity” value [1, 12] was 1435. The CDK-a % [1, 13] was 100.0%, the “CDK-a Band intensity” value [1, 13] was 1816 and the CDK-a % [1, 14] was 89.25%. The “CDK-a Band intensity” value [1, 14] was 1620, the CDK-a % [1, 15] was 53.55% and the “CDK-a Band intensity” value [1, 15] was 972. The CDK-a % [1, 16] was 34.25%, the “CDK-a Band intensity” value [1, 16] was 621 and the CDK-a % [1, 17] was 40.96%. The “CDK-a Band intensity” value [1, 17] was 743, the CDK-a % [1, 18] was 36.32% and the “CDK-a Band intensity” value [1, 18] was 659. The CDK-a % [1, 19] was 29.30%, the “CDK-a Band intensity” value [1, 19] was 532 and the “Labelling Index (%)” value ([2]; 1 h after aphidicolin removal) was 19.41%. The “Mitotic index (%)” value ([2]; 1 h after aphidicolin removal) was 0%, the “Labelling Index (%)” value ([2]; 2 h after aphidicolin removal) was 35.47% and the “Mitotic index (%)” value ([2]; 2 h after aphidicolin removal) was 0.2%. The “Labelling Index (%)” value ([2]; 3 h after aphidicolin removal) was 69.46%, the “Mitotic index (%)” value ([2]; 3 h after aphidicolin removal) was 0.4% and the “Labelling Index (%)” value ([2]; 4 h after aphidicolin removal) was 66%. The “Mitotic index (%)” value ([2]; 4 h after aphidicolin removal) was 0.6%, the “Labelling Index (%)” value ([2]; 5 h after aphidicolin removal) was 39.22% and the “Mitotic index (%)” value ([2]; 5 h after aphidicolin removal) was 1.21%. The “Labelling Index (%)” value ([2]; 6 h after aphidicolin removal) was 16.05%, the “Mitotic index (%)” value ([2]; 6 h after aphidicolin removal) was 0.92% and the “Labelling Index (%)” value ([2]; 7 h after aphidicolin removal) was 13.27%. The “Mitotic index (%)” value ([2]; 7 h after aphidicolin removal) was 0.71%, the “Labelling Index (%)” value ([2]; 8 h after aphidicolin removal) was 9.6% and the “Mitotic index (%)” value ([2]; 8 h after aphidicolin removal) was 1.87%. For the same compound, the “Labelling Index (%)” value ([2]; 9 h after aphidicolin removal) was 8.23%, the “Mitotic index (%)” value ([2]; 9 h after aphidicolin removal) was 2.41% and the “Labelling Index (%)” value ([2]; 10 h after aphidicolin removal) was 9.23%. The “Mitotic index (%)” value ([2]; 10 h after aphidicolin removal) was 6.09%, the “Labelling Index (%)” value ([2]; 11 h after aphidicolin removal) was 4.6% and the “Mitotic index (%)” value ([2]; 11 h after aphidicolin removal) was 6.7%. For the same compound, the “Labelling Index (%)” value ([2]; 12 h after aphidicolin removal) was 1.46%, the “Mitotic index (%)” value ([2]; 12 h after aphidicolin removal) was 10.72% and the “Labelling Index (%)” value ([2]; 13 h after aphidicolin removal) was 2.78%. For the same compound, the “Mitotic index (%)” value ([2]; 13 h after aphidicolin removal) was 11.06%, the “Labelling Index (%)” value ([2]; 14 h after aphidicolin removal) was 3.61% and the “Mitotic index (%)” value ([2]; 14 h after aphidicolin removal) was 10.99%. The “Labelling Index (%)” value ([2]; 15 h after aphidicolin removal) was 2.73%, the “Mitotic index (%)” value ([2]; 15 h after aphidicolin removal) was 6.74% and the “Labelling Index (%)” value ([2]; 16 h after aphidicolin removal) was 2.28%. The “Mitotic index (%)” value ([2]; 16 h after aphidicolin removal) was 5.79%, the “Labelling Index (%)” value ([2]; 17 h after aphidicolin removal) was 1.96% and the “Mitotic index (%)” value ([2]; 17 h after aphidicolin removal) was 4.49%. For the same compound, the “Labelling Index (%)” value ([2]; 18 h after aphidicolin removal) was 3.3%, the “Mitotic index (%)” value ([2]; 18 h after aphidicolin removal) was 4.01% and the “Labelling Index (%)” value ([2]; 19 h after aphidicolin removal) was 7.62%. The “Mitotic index (%)” value ([2]; 19 h after aphidicolin removal) was 2.38%, the Labelling index peak ([3]; 3 h after release) was 52% and the MI peak ([3]; about 12 hrs after release from the aphidicolin block) was 9.8%.
